We go through one compound from BindingDB's records for patent US10071110 (University of California, 2018).

Molecules are shown by their SMILES.

The assay has as its target T1, Capsid scaffolding protein (Human cytomegalovirus (strain AD169), UniProt P16753).
T1 sequence (P16753 whole entry): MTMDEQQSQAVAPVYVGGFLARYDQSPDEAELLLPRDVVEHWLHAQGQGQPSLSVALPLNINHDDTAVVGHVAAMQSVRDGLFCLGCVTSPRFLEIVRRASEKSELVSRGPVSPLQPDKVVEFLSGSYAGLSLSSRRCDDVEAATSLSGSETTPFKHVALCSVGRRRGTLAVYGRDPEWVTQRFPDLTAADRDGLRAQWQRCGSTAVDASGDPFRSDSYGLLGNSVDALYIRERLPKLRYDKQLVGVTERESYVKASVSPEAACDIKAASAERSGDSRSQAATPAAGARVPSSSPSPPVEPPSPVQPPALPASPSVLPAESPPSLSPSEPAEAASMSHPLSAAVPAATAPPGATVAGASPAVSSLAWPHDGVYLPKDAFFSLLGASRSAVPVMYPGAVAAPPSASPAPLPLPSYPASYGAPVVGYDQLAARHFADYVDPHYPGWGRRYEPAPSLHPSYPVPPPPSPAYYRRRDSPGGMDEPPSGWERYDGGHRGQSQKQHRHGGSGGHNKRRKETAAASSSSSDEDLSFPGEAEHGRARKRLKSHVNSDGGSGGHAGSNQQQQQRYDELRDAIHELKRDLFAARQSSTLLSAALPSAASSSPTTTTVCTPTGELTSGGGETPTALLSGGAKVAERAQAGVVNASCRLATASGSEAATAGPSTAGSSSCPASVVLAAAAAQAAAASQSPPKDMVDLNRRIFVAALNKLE
In words: HCMV antiviral assay. On the procedure: Methods 21:293-298, 1990. […] After absorption of the lysate, the Hybriwix filters were hybridized overnight at 60° C.

By EC50 is commonly meant the concentration that produces a half-maximal response. Compound `Nc1ncnc2c1ncn2CCOCP(=O)(O)O` [US10071110, Compound Adefovir] registered an EC50 of 55 µM.
